Laboratory results published in publication PMC11012124, “Synthesis of Novel Triazine-Based Chalcones and 8,9-dihydro-7H-pyrimido[4,5-b][1,4]diazepines as Potential Leads in the Search of Anticancer, Antibacterial and Antifungal Agents” (International Journal of Molecular Sciences, 2024).

Columns and labels:
MCF7 = experiment: cells; conditions: Homo sapiens, MCF7, 48 h
NCI-H522 = experiment: cells; conditions: Homo sapiens, NCI-H522, 48 h
KM12 = experiment: cells; conditions: Homo sapiens, KM12, 48 h
MOLT-4 = experiment: cells; conditions: Homo sapiens, MOLT-4, 48 h
SK-OV-3 = experiment: cells; conditions: Homo sapiens, SK-OV-3, 48 h
60 cancer cell lines = experiment: NCI-60 one-dose screen (10 μM); format: cell-based; conditions: Homo sapiens; one dose of 10 μM, mean over 60 cancer cell lines; read-out: Mean Growth Percent (MGP)
Source text: Additionally, the mean of the growth percentages (MGP) of each compound against all the 60 cancer cell lines is also reported, which is used as one of the selection criteria to continue with tests at five concentration doses.

HT29 = experiment: cells; conditions: Homo sapiens, HT-29, 48 h
MDA-MB-468 = experiment: cells; conditions: Homo sapiens, MDA-MB-468, 48 h
A549/ATCC = experiment: cells; conditions: Homo sapiens, A549, 48 h
A498 = experiment: cells; conditions: Homo sapiens, A498, 48 h
UO-31 = experiment: cells; conditions: Homo sapiens, UO-31, 48 h
HL-60(TB) = experiment: cells; conditions: Homo sapiens, HL-60, 48 h
LOX IMVI = experiment: cells; conditions: Homo sapiens, 48 h
T-47D = experiment: cells; conditions: Homo sapiens, T47D, 48 h
SF-295 = experiment: cells; conditions: Homo sapiens, SF-295, 48 h
OVCAR-5 = experiment: cells; conditions: Homo sapiens, OVCAR-5, 48 h
OVCAR-4 = experiment: cells; conditions: Homo sapiens, OVCAR-4, 48 h
SF-539 = experiment: cells; conditions: Homo sapiens, SF-539, 48 h
MDA-MB-231/ATCC = experiment: cells; conditions: Homo sapiens, MDA-MB-231, 48 h
TK-10 = experiment: cells; conditions: Homo sapiens, TK-10, 48 h
UACC-257 = experiment: cells; conditions: Homo sapiens, UACC-257, 48 h
SN12C = experiment: cells; conditions: Homo sapiens, 48 h
HCT-15 = experiment: cells; conditions: Homo sapiens, HCT-15, 48 h
NCI-H23 = experiment: cells; conditions: Homo sapiens, NCI-H23, 48 h
U251 = experiment: cells; conditions: Homo sapiens, U-251, 48 h
SNB-75 = experiment: cells; conditions: Homo sapiens, SNB-75, 48 h, read-out: LC50
HOP-92 = experiment: cells; conditions: Homo sapiens, HOP-92, 48 h
SK-MEL-2 = experiment: cells; conditions: Homo sapiens, SK-MEL-2, 48 h
COLO 205 = experiment: cells; conditions: Homo sapiens, COLO 205, 48 h
DU-145 = experiment: cells; conditions: Homo sapiens, DU-145, 48 h
M14 = experiment: cells; conditions: Homo sapiens, M14, 48 h
NCI-H226 = experiment: cells; conditions: Homo sapiens, NCI-H226, 48 h
RPMI-8226 = experiment: cells; conditions: Homo sapiens, RPMI-8226, 48 h
SK-MEL-5 = experiment: cells; conditions: Homo sapiens, SK-MEL-5, 48 h
786-0 = experiment: cells; conditions: Homo sapiens, 786-0, 48 h
NCI-H460 = experiment: cells; conditions: Homo sapiens, NCI-H460, 48 h
HCT-116 = experiment: cells; conditions: Homo sapiens, HCT-116, 48 h

Compound: COc1cc(/C=C/C(=O)c2ccc(S(=O)(=O)NCCNc3nc(Nc4ccc(F)cc4)nc(N(C)C)n3)cc2)cc(OC)c1OC [24d]
- GI50 (MCF7): 1.96 µM
- CC50 (MCF7; read-out: LC50): 9.34 µM
- GI50 (NCI-H522): 6.45 µM
- CC50 (NCI-H522; read-out: LC50): 50 µM
- GI50 (KM12): 2.07 µM
- GI50 (MOLT-4): 2.74 µM
- CC50 (MOLT-4; read-out: LC50): > 100 µM
- GI50 (SK-OV-3): 21.8 µM
- CC50 (SK-OV-3; read-out: LC50): > 100 µM
- activity at 10 µM (60 cancer cell lines): -0.31%
- GI50 (HT29): 1.93 µM
- CC50 (HT29; read-out: LC50): 6.46 µM
- GI50 (MDA-MB-468): 2 µM
- CC50 (MDA-MB-468; read-out: LC50): 11.5 µM
- GI50 (A549/ATCC): 12.2 µM
- CC50 (A549/ATCC; read-out: LC50): 78.6 µM
- GI50 (A498): 11.3 µM
- CC50 (A498; read-out: LC50): 50.3 µM
- GI50 (UO-31): 4.45 µM
- CC50 (UO-31; read-out: LC50): 41.4 µM
- GI50 (HL-60(TB)): 2.64 µM
- CC50 (HL-60(TB); read-out: LC50): > 100 µM
- GI50 (LOX IMVI): 1.71 µM
- CC50 (LOX IMVI; read-out: LC50, LOX IMVI, 48 h): 5.62 µM
- GI50 (T-47D): 3.48 µM
- CC50 (T-47D; read-out: LC50): > 100 µM
- GI50 (SF-295): 2.16 µM
- CC50 (SF-295; read-out: LC50): 11.1 µM
- GI50 (OVCAR-5): 12.9 µM
- CC50 (OVCAR-5; read-out: LC50): 55.4 µM
- GI50 (OVCAR-4): 8.02 µM
- CC50 (OVCAR-4; read-out: LC50): > 100 µM
- GI50 (SF-539): 1.71 µM
- CC50 (SF-539; read-out: LC50, SF-539, 48 h): 5.93 µM
- GI50 (MDA-MB-231/ATCC): 4.41 µM
- CC50 (MDA-MB-231/ATCC; read-out: LC50): 83.4 µM
- GI50 (TK-10): 13.1 µM
- CC50 (TK-10; read-out: LC50): > 100 µM
- GI50 (UACC-257): 15.1 µM
- CC50 (UACC-257; read-out: LC50): 65.1 µM
- GI50 (SN12C): 5.71 µM
- CC50 (SN12C; read-out: LC50): 63.6 µM
- GI50 (HCT-15): 1.8 µM
- CC50 (HCT-15; read-out: LC50): 6.57 µM
- GI50 (NCI-H23): 3.03 µM
- CC50 (NCI-H23; read-out: LC50): 34.9 µM
- GI50 (U251; U251, 48 h): 1.81 µM
- CC50 (U251; read-out: LC50): 6.89 µM
- CC50 (SNB-75): 91.9 µM
- GI50 (HOP-92): 11.5 µM
- CC50 (HOP-92; read-out: LC50): > 100 µM
- GI50 (SK-MEL-2): 13.5 µM
- CC50 (SK-MEL-2; read-out: LC50): 59.5 µM
- GI50 (COLO 205): 4.78 µM
- CC50 (COLO 205; read-out: LC50): 86.1 µM
- GI50 (DU-145): 10.9 µM
- CC50 (DU-145; read-out: LC50): > 100 µM
- GI50 (M14): 3.28 µM
- CC50 (M14; read-out: LC50): 47.4 µM
- GI50 (NCI-H226): 4.47 µM
- CC50 (NCI-H226; read-out: LC50): > 100 µM
- GI50 (RPMI-8226): 2.5 µM
- CC50 (RPMI-8226; read-out: LC50): > 100 µM
- GI50 (SK-MEL-5): 3.4 µM
- CC50 (SK-MEL-5; read-out: LC50): 36.2 µM
- GI50 (786-0): 2.94 µM
- CC50 (786-0; read-out: LC50): 51.9 µM
- GI50 (NCI-H460): 5.12 µM
- CC50 (NCI-H460; read-out: LC50): 50.6 µM
- GI50 (HCT-116): 1.77 µM
- CC50 (HCT-116; read-out: LC50): 7.66 µM
